# Experimental data reported in patent publication US11708348B2, “Protease inhibitors for treatment of coronavirus infections” (The Scripps Research Institute, priority 2021, dated 2023).
# Test system: SARS-CoV-2 strain USA-WA1/2020
# Test: microbe, parasite or virus in culture
# Format: cell-based
# Settings: Severe acute respiratory syndrome coronavirus 2, HeLa-ACE2, 24 h, HeLa-ACE2 cells, SARS-CoV-2 infection, 24 h; bound printed in cell; read-out: EC50, uM (Hela)
row,Structure (SMILES),EC50 [µM]
1,"CC(C)C[C@H](NC(=O)C(N)=O)C(=O)N[C@@H](C[C@@H]1CCNC1=O)C(=O)COC(F)(F)F [Compound 239, N1-((S)-4-methyl-1-oxo-1-(((S)-3-oxo-1-((S)-2-oxopyrrolidin-3-yl)-4-(trifluoromethoxy)butan-2-yl)amino)pentan-2-yl)oxalamide]",> 1

# Same assay, conditions: Severe acute respiratory syndrome coronavirus 2, HeLa-ACE2, 24 h, HeLa-ACE2 cells, SARS-CoV-2 infection, 24 h; cells given as a bound; read-out: EC50, uM (Hela)
row,Structure (SMILES),EC50 [µM]
1,"O=C(Nc1ccccc1F)C(=O)N1CCC[C@@H](C(=O)N[C@@H](C[C@@H]2CCNC2=O)C(=O)COc2c(F)c(F)cc(F)c2F)C1 [Compound 95, (R)-1-(2-((2-fluorophenyl)amino)-2-oxoacetyl)-N-((S)-3-oxo-1-((S)-2-oxopyrrolidin-3-yl)-4-(2,3,5,6-tetrafluorophenoxy)butan-2-yl)piperidine-3-carboxamide]",> 1

# Same assay, conditions: Severe acute respiratory syndrome coronavirus 2, HeLa-ACE2, 24 h, HeLa-ACE2 cells, SARS-CoV-2 infection, 24 h; class symbols; read-out: EC50, uM (Hela)
row,Structure (SMILES),EC50 [µM]
1,"CC[C@@H](OC)C(=O)N1C[C@H]2[C@@H]([C@H]1C(=O)N[C@@H](C[C@@H]1CCNC1=O)C(=O)COC(F)(F)F)C2(C)C [Compound 336, (1R,2S,5S)-3-((R)-2-methoxybutanoyl)-6,6-dimethyl-N—((S)-3-oxo-1-((S)-2-oxopyrrolidin-3-yl)-4-(trifluoromethoxy)butan-2-yl)-3-azabicyclo[3.1.0]hexane-2-carboxamide]",0.05 to 0.2
2,"CC(C)C[C@H](NC(=O)O[C@H]1CCOC1)C(=O)N[C@@H](C[C@@H]1CCNC1=O)C(=O)COc1c(F)c(F)cc(F)c1F [Compound 127, (S)-tetrahydrofuran-3-yl ((S)-4-methyl-1-oxo-1-(((S)-3-oxo-1-((S)-2-oxopyrrolidin-3-yl)-4-(2,3,5,6-tetrafluorophenoxy)butan-2-yl)amino)pentan-2-yl)carbamate]",0.5 to 1
3,"CC(C)[C@@H](O)C(=O)N1C[C@H]2[C@@H]([C@H]1C(=O)N[C@@H](C[C@@H]1CCNC1=O)C(=O)COC(F)(F)F)C2(C)C [Compound 357, (1R,2S,5S)-3-((R)-2-hydroxy-3-methylbutanoyl)-6,6-dimethyl-N-((S)-3-oxo-1-((S)-2-oxopyrrolidin-3-yl)-4-(trifluoromethoxy)butan-2-yl)-3-azabicyclo-[3.1.0]hexane-2-carboxamide]",0.05 to 0.2
4,"CC(C)C[C@H](NC(=O)C(=O)Nc1ccccc1Br)C(=O)N[C@@H](C[C@@H]1CCNC1=O)C(=O)COc1c(F)c(F)cc(F)c1F [Compound 56, N1-(2-bromophenyl)-N2-((S)-4-methyl-1-oxo-1-(((S)-3-oxo-1-((S)-2-oxopyrrolidin-3-yl)-4-(2,3,5,6-tetrafluorophenoxy)butan-2-yl)amino)pentan-2-yl)oxalamide]",0.05 to 0.2
5,"CCc1cccc(CC)c1NC(=O)C(=O)N[C@@H](CC(C)C)C(=O)N[C@@H](C[C@@H]1CCNC1=O)C(=O)COC(F)(F)F [Compound 167, N1-(2,6-diethylphenyl)-N2-((S)-4-methyl-1-oxo-1-(((S)-3-oxo-1-((S)-2-oxopyrrolidin-3-yl)-4-(trifluoromethoxy)butan-2-yl)amino)pentan-2-yl)oxalamide]",< 0.05

# Same assay, conditions: Severe acute respiratory syndrome coronavirus 2, HeLa-ACE2, 24 h, HeLa-ACE2 cells, SARS-CoV-2 infection, 24 h; read-out: EC50, uM (Hela)
row,Structure (SMILES),EC50 [µM]
1,"O=C1NCC[C@H]1C[C@H](NC(=O)[C@@H]1CC2(CC2)CN1C(=O)C1CCCC1)C(=O)COC(F)(F)F [Compound 723, (S)-5-(cyclopentanecarbonyl)-N-((S)-3-oxo-1-((S)-2-oxopyrrolidin-3-yl)-4-(trifluoromethoxy)butan-2-yl)-5-azaspiro[2.4]heptane-6-carboxamide]",0.05 to 0.2
2,"CC(C)(NC(=O)C(=O)N1C[C@@H]2CCC[C@@H]2[C@H]1C(=O)N[C@@H](C[C@@H]1CCNC1=O)C(=O)COC(F)(F)F)C(F)(F)F [Compound 526, (1S,3aR,6aS)-N-((S)-3-oxo-1-((S)-2-oxopyrrolidin-3-yl)-4-(trifluoromethoxy)butan-2-yl)-2-(2-oxo-2-((1,1,1-trifluoro-2-methylpropan-2-yl)amino)acetyl)-octahydrocyclopenta[c]-pyrrole-1-carboxamide]",< 0.05
3,"CC(C)(C)NC(=O)C(=O)N1C[C@@H]2CCC[C@@H]2[C@H]1C(=O)N[C@@H](Cc1ccc[nH]c1=O)C(=O)COC(F)(F)F [Compound 574, (1S,3aR,6aS)-2-(2-(tert-butylamino)-2-oxoacetyl)-N-((S)-3-oxo-1-(2-oxo-1,2-dihydropyridin-3-yl)-4-(trifluoromethoxy)butan-2-yl)octahydrocyclo-penta[c]pyrrole-1-carboxamide]",0.5 to 1
4,"CC(C)CC(F)(F)C(=O)N1CC2(CC2)C[C@H]1C(=O)N[C@@H](C[C@@H]1CCNC1=O)C(=O)COC(F)(F)F [Compound 623, (S)-5-(2,2-difluoro-4-methylpentanoyl)-N-((S)-3-oxo-1-((S)-2-oxopyrrolidin-3-yl)-4-(trifluoromethoxy)butan-2-yl)-5-azaspiro[2.4]heptane-6-carboxamide]",< 0.05
5,"CC1(C)[C@@H]2[C@@H](C(=O)N[C@@H](C[C@@H]3CCNC3=O)C(=O)COC(F)(F)F)N(C(=O)C(=O)NCC(F)F)C[C@@H]21 [Compound 516, (1R,2S,5S)-3-(2-((2,2-difluoroethyl)amino)-2-oxoacetyl)-6,6-dimethyl-N-((S)-3-oxo-1-((S)-2-oxopyrrolidin-3-yl)-4-(trifluoromethoxy)butan-2-yl)-3-azabicyclo-[3.1.0]hexane-2-carboxamide]",0.05 to 0.2
6,"CCCC(=O)N1CC2(CC2)C[C@H]1C(=O)N[C@@H](C[C@@H]1CCNC1=O)C(=O)COC(F)(F)F [Compound 705, (S)-5-butyryl-N-((S)-3-oxo-1-((S)-2-oxopyrrolidin-3-yl)-4-(trifluoromethoxy)butan-2-yl)-5-azaspiro[2.4]heptane-6-carboxamide]",0.2 to 0.5
7,"O=C1NCC[C@H]1C[C@H](NC(=O)[C@@H]1[C@H]2CCC[C@H]2CN1C(=O)c1noc2cc(Cl)ccc12)C(=O)COC(F)(F)F [Compound 609, (1S,3aR,6aS)-2-(6-chlorobenzo[d]isoxazole-3-carbonyl)-N-((S)-3-oxo-1-((S)-2-oxopyrrolidin-3-yl)-4-(trifluoromethoxy)butan-2-yl)octahydrocyclopenta[c]pyrrole-1-carboxamide]",< 0.05
8,"O=C1NCC[C@H]1C[C@H](NC(=O)[C@@H]1CC2(CC2)CN1C(=O)C(O)c1ccccc1C(F)(F)F)C(=O)COC(F)(F)F (stereo partly drawn) [Compound 406, (6S)-5-(2-hydroxy-2-(2-(trifluoromethyl)-phenyl)acetyl)-N-((S)-3-oxo-1-((S)-2-oxopyrrolidin-3-yl)-4-(trifluoromethoxy)butan-2-yl)-5-azaspiro[2.4]heptane-6-carboxamide]",0.05 to 0.2
9,"CC(=O)N[C@@H](CC(C)C)C(=O)N[C@@H](C[C@@H]1CCNC1=O)C(=O)COC(F)(F)F [Compound 709, (S)-2-acetamido-4-methyl-N-((S)-3-oxo-l-((S)-2-oxopyrrolidin-3-yl)-4-(trifluoromethoxy)butan-2-yl)pentanamide]",0.2 to 0.5
10,"CCC(OC)C(=O)N1CC2(CC2)C[C@H]1C(=O)N[C@@H](C[C@@H]1CCNC1=O)C(=O)COC(F)(F)F (stereo partly drawn) [Compound 758, (6S)-5-(2-methoxybutanoyl)-N-((S)-3-oxo-1-((S)-2-oxopyrrolidin-3-yl)-4-(trifluoromethoxy)butan-2-yl)-5-azaspiro[2.4]heptane-6-carboxamide]",0.2 to 0.5
11,"CC(C)C[C@H](C)C(=O)N1CC2(CC2)C[C@H]1C(=O)N[C@@H](C[C@@H]1CCNC1=O)C(=O)COC(F)(F)F [Compound 748, (S)-5-((S)-2,4-dimethylpentanoyl)-N-((S)-3-oxo-1-((S)-2-oxopyrrolidin-3-yl)-4-(trifluoromethoxy)butan-2-yl)-5-azaspiro[2.4]heptane-6-carboxamide]",0.05 to 0.2
12,"O=C(N[C@@H](Cc1ccccc1)C(=O)N[C@@H](C[C@@H]1CCNC1=O)C(=O)COC(F)(F)F)c1cc(-c2ccccc2F)on1 [Compound 460, 5-(2-fluorophenyl)-N-((S)-1-oxo-1-(((S)-3-oxo-1-((S)-2-oxopyrrolidin-3-yl)-4-(trifluoromethoxy)butan-2-yl)amino)-3-phenylpropan-2-yl)isoxazole-3-carboxamide]",< 0.05
13,"CC(C)(C)NC(=O)C(=O)N1CC2(CC2)C[C@H]1C(=O)N[C@@H](C[C@@H]1CCNC1=O)C(=O)COC(F)(F)F [Compound 502, (S)-5-(2-(tert-butylamino)-2-oxoacetyl)-N-((S)-3-oxo-1-((S)-2-oxopyrrolidin-3-yl)-4-(trifluoromethoxy)butan-2-yl)-5-azaspiro[2.4]-heptane-6-carboxamide]",< 0.05

# Same assay, conditions: Severe acute respiratory syndrome coronavirus 2, HeLa-ACE2, 24 h; read-out: EC50, uM (Hela)
row,Structure (SMILES),EC50 [µM]
1,"CC(C)C[C@H](NC(=O)c1cc2cc(F)ccc2[nH]1)C(=O)N[C@@H](C[C@@H]1CCNC1=O)C(=O)COP(=O)(c1ccccc1)c1ccccc1 [Compound 50, (S)-3-((S)-2-(5-fluoro-1H-indole-2-carboxamido)-4-methylpentanamido)-2-oxo-4-((S)-2-oxopyrrolidin-3-yl)butyl diphenylphosphinate]",0.2 to 0.5
2,"CC(C)C[C@H](NC(=O)C(=O)Nc1ccccc1)C(=O)N[C@@H](C[C@@H]1CCNC1=O)C(=O)COP(C)(=O)c1ccccc1 (stereo partly drawn) [Compound 653, (S)-3-((S)-4-methyl-2-(2-oxo-2-(phenylamino)acetamido)pentanamido)-2-oxo-4-((S)-2-oxopyrrolidin-3-yl)butyl methyl(phenyl)phosphinate]",0.2 to 0.5
3,"CC(C)C[C@H](NC(=O)C(=O)Nc1ccc(Br)cc1F)C(=O)N[C@@H](C[C@@H]1CCNC1=O)C(=O)COc1c(F)c(F)cc(F)c1F [Compound 96, N1-(4-bromo-2-fluorophenyl)-N2-((S)-4-methyl-1-oxo-1-(((S)-3-oxo-1-((S)-2-oxopyrrolidin-3-yl)-4-(2,3,5,6-tetrafluorophenoxy)butan-2-yl)amino)pentan-2-yl)oxalamide]",0.05 to 0.2
